Results from ChEMBL document CHEMBL1135547, “Anticholinesterase activity of compounds related to geneserine tautomers. N-Oxides and 1,2-oxazines” (J Med Chem, 2002).

How the values were obtained:
Cholinesterase = Cholinesterase (Homo sapiens, UniProt P06276)
Description: Ex vivo inhibition of human plasma Butyrylcholinesterase.

Acetylcholinesterase = Acetylcholinesterase (Homo sapiens, UniProt P22303)
Sequence of Acetylcholinesterase (P22303 whole entry): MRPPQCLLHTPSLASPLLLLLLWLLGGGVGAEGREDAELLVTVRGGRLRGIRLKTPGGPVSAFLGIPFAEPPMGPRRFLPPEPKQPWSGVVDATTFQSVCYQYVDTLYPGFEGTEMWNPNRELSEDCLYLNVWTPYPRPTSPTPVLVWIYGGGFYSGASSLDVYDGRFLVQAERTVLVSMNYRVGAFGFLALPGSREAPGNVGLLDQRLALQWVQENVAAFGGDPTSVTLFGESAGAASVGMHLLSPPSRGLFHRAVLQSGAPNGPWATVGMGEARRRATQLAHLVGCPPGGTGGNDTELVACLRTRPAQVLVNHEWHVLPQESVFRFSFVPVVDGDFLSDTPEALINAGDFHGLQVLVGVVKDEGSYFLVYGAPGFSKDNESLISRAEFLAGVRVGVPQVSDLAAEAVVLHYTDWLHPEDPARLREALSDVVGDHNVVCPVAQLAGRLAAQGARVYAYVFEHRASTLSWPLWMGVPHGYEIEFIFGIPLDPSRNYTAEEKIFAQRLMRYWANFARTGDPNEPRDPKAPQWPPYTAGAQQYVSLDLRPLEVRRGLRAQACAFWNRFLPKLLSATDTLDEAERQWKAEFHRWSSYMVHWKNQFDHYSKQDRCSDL
Description: Ex vivo inhibition of human erythrocyte Acetylcholinesterase.

Sequence of Cholinesterase (P06276 whole entry): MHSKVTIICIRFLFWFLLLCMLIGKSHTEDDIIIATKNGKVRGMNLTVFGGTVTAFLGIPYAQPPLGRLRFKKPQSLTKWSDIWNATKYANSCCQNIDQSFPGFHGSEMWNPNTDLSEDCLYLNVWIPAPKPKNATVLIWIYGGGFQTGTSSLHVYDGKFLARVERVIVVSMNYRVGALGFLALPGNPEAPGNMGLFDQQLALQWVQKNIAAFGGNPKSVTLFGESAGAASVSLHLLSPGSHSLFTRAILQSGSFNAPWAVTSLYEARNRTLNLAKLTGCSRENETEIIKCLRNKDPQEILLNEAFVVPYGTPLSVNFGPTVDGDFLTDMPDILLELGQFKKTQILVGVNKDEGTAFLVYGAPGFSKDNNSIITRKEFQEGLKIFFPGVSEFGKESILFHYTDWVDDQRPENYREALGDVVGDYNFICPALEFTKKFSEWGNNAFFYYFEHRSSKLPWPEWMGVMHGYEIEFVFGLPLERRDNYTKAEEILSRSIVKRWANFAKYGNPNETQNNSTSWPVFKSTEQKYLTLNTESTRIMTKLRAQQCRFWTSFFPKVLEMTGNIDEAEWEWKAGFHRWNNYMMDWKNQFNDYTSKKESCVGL

SMILES: CC(C)c1ccc(NC(=O)Oc2ccc3c(c2)[C@]2(C)CC[N@@+](C)([O-])[C@@H]2N3C)cc1
- IC50 (Cholinesterase): 5200 nM
- IC50 (Acetylcholinesterase): > 10000 nM

SMILES: C/C=C1\[C@H]2C=C(C)C[C@]1(N)c1ccc(=O)[nH]c1C2 [HUPERZINE A]
- IC50 (Cholinesterase): > 10000 nM

SMILES: CNC(=O)Oc1ccc2c(c1)[C@]1(C)CCN(C)O[C@@H]1N2C [ESERIDINE]
- IC50 (Cholinesterase): 12 nM

SMILES: Cc1ccccc1NC(=O)Oc1ccc2c(c1)[C@]1(C)CC[N@@+](C)([O-])[C@@H]1N2C
- IC50 (Cholinesterase): > 10000 nM
- IC50 (Acetylcholinesterase): 180 nM

SMILES: CNC(=O)Oc1ccc2c(c1)[C@]1(C)CC[N@@+](C)([O-])[C@@H]1N2C
- IC50 (Cholinesterase): 660 nM
- IC50 (Acetylcholinesterase): 100 nM

SMILES: CCc1ccccc1NC(=O)Oc1ccc2c(c1)[C@]1(C)CC[N@@+](C)([O-])[C@@H]1N2C
- IC50 (Cholinesterase): 1700 nM
- IC50 (Acetylcholinesterase): 125 nM

SMILES: CCc1ccccc1NC(=O)Oc1ccc2c(c1)[C@]1(C)CCN(C)O[C@@H]1N2C [GANSTIGMINE]
- IC50 (Cholinesterase): 310 nM
- IC50 (Acetylcholinesterase): 65 nM

SMILES: CN1CC[C@@]2(C)c3cc(OC(=O)Nc4ccccc4)ccc3N(C)[C@H]2O1
- IC50 (Cholinesterase): 815 nM
- IC50 (Acetylcholinesterase): 130 nM

SMILES: CN1c2ccc(OC(=O)Nc3ccccc3)cc2[C@]2(C)CC[N@@+](C)([O-])[C@H]12
- IC50 (Cholinesterase): > 10000 nM
- IC50 (Acetylcholinesterase): 200 nM

SMILES: Cc1ccccc1NC(=O)Oc1ccc2c(c1)[C@]1(C)CCN(C)O[C@@H]1N2C
- IC50 (Cholinesterase): 1570 nM
- IC50 (Acetylcholinesterase): 175 nM

SMILES: CCCCCCCNC(=O)Oc1ccc2c(c1)[C@]1(C)CCN(C)[C@@H]1N2C [EPTASTIGMINE]
- IC50 (Cholinesterase): 5 nM
- IC50 (Acetylcholinesterase): 22 nM

SMILES: CC(C)c1ccc(NC(=O)Oc2ccc3c(c2)[C@]2(C)CCN(C)O[C@@H]2N3C)cc1
- IC50 (Cholinesterase): 25 nM
- IC50 (Acetylcholinesterase): > 10000 nM
